In US5827895A, “Hexahydrolupulones useful as anticancer agents” (Regents of the University of Minnesota, priority 1996, dated 1998):
≈ marks a conversion by molar mass, not a printed value. Entries after “also recorded” stand apart in the source; their conditions may differ. Like-named read-outs stand apart in the source and are kept apart here.

Key:
[1] = tested on: KB cells (human oral epidermoid carcinoma); assay: Trypan blue exclusion assay, cytostatic activity, KB; assay type: cell-based; conditions: incubation 48h, 3 experiments, read-out: ID50 (the source's name)
[2] = Mannering et al.; cited from earlier work
Pseudomonas = assay: Minimum inhibitory concentration, Pseudomonas
Leishmania tarentolae = assay: Anti-protozoal activity, cell counts of Leishmania tarentolae; assay type: cell-based; conditions: for activity at 0.1 µM / activity at 0.25 µM / activity at 0.5 µM / activity at 1 µM / activity at 2.5 µM: Leishmania tarentolae, read-out: % control
Procedure: Leishmania tarentolae was grown in BHI (brain heart infusion; Difco) supplemented with 10 μg/ml of hemin. Leishmanial cells were counted by doing a 1:1 dilution of the cells with 3% formaldehyde/1×SSC (0.15 M NaCl/0.015 M sodium citrate) solution. Cells were seeded at log phase (0.5-1×10^6 cells/ml) in T-25 cm^2 flasks. Equal volumes of HHC at different concentrations (0.1, 0.25, 0.5, 1.0, 2.5 μM) were added to the cells. DMSO at the same volume as that used for HHC was included as solvent control. At each time point (6, 12, 18, 24, 32 hrs post-drug addition), cells were observed under the microscope for possible effect of HHC on Leishmanial motility. Aliquots of cells (100 μl) were removed from each flask at each time point, diluted as mentioned above and cell numbers were quantitated using a hemocytometer.

[3] = tested on: HeLa S3 cells (human cervical epithelioid carcinoma); assay: Trypan blue exclusion assay, cytostatic activity, HeLa S3; assay type: cell-based; conditions: incubation 24h, 3 experiments, read-out: ID50 (the source's name)
Staphylococcus aureus = assay: Growth of Staphylococcus aureus in LB broth by OD600 (FIG. 1); assay type: cell-based; conditions: 0.5-25 μM
Procedure: A single colony of Staphylococcus aureus was grown in 2 ml of Luria-Bertani(LB) broth overnight at 37° C. in a bacterial shaker with vigorous shaking. 0.5 ml of the culture was transferred to 250 ml LB and allowed to grow at 37° C. until the OD600 (optical density) reading was about 0.2 (a reading of 1 OD600 indicates a cell concentration of approximately 8×10^8 cells/ml). […] No-drug and DMSO solvent were used as controls. Aliquots of the bacterial culture were taken every 2 hours to obtain the OD600 reading.

[4] = tested on: VRE (Vancomycin Resistant Enterococcus faeclum); assay: microbe, parasite or virus in culture
Procedure: (§1) HHC was also tested for effectiveness against various bacterial isolates obtained from human subjects.

[5] = tested on: DNA, RNA or protein synthesis; assay: Other studies on DNA, RNA or protein synthesis in cancer cells; assay type: cell-based
MCF-7 cells = assay: Fluorescence activated cell sorting (FACS), cell cycle phase; assay type: cell-based, human; conditions: for cell cycle phase distribution: 48 hours
Procedure: Fluorescence activated cell sorting (FACS) was used to determine what percentage of cells could be found in the designated cell cycle phase after 48 hours of continuous HHC exposure. There are four distinct phases in the cell cycle which lead to duplication of the cell and its genetic material. In the G0/G1 phase the cell is at rest or is performing miscellaneous biosynthetic functions. During the S phase, DNA synthesis occurs which leads to replication of the chromosomes. G2 is the pre-mitotic interval while the M phase is the time during which the cell divides.
MCF-7 cells were exposed to concentrations of 1.5 μM and 25 μM of HHC, and DMSO. DMSO had no significant effect on the cell cycle, with a profile almost identical to that of the "no drug" control.

[6] = tested on: MRSA (Methicillin resistant Staphylococcus A.); assay: Minimum inhibitory concentration, MRSA; assay type: cell-based, Staphylococcus aureus
[7] = tested on: Raji cells (human Burkitt lymphoma); assay: Trypan blue exclusion assay, cytostatic activity, Raji; assay type: cell-based; conditions: incubation 24h, 4 experiments, read-out: ID50 (the source's name)
[8] = tested on: CEM cells (human acute lymphoblastic leukemia); assay: Trypan blue exclusion assay, cytostatic activity, CEM; assay type: cell-based; conditions: CCRF-CEM, incubation 48h, 4 experiments, read-out: ID50 (the source's name)
[9] = tested on: OxaRSA (Oxacillin Resistant Staphylococcus aureus); assay: Patient isolates evaluated for antibiotic sensitivity, OxaRSA
Procedure: as §1

CC(C)CCC1=C(O)C(C(=O)C(C)C)=C(O)C(CCC(C)C)(CCC(C)C)C1=O [HHC, hexahydrocolupulone]
IC50 [1]: 850 nM | activity relative to non-hydrogenated parent [2]: more active than colupulone | MIC (Pseudomonas): > 100 µM | cells/ml (Leishmania tarentolae; 0.1 μM, 6 hr): 2.65 no. of cells × 10^6 | cells/ml (Leishmania tarentolae; 0.1 μM, 12 hr): 6.58 no. of cells × 10^6 | cells/ml (Leishmania tarentolae; 0.1 μM, 18 hr): 12.1 no. of cells × 10^6 | cells/ml (Leishmania tarentolae; 0.1 μM, 24 hr): 21.2 no. of cells × 10^6 | cells/ml (Leishmania tarentolae; 0.1 μM, 32 hr): 43.9 no. of cells × 10^6 | cells/ml (Leishmania tarentolae; 0.25 μM, 6 hr): 3.0 no. of cells × 10^6 | cells/ml (Leishmania tarentolae; 0.25 μM, 12 hr): 7.35 no. of cells × 10^6 | cells/ml (Leishmania tarentolae; 0.25 μM, 18 hr): 12.7 no. of cells × 10^6 | cells/ml (Leishmania tarentolae; 0.25 μM, 24 hr): 19.72 no. of cells × 10^6 | cells/ml (Leishmania tarentolae; 0.25 μM, 32 hr): 40.1 no. of cells × 10^6 | cells/ml (Leishmania tarentolae; 0.5 μM, 6 hr): 2.43 no. of cells × 10^6 | cells/ml (Leishmania tarentolae; 0.5 μM, 12 hr): 5.13 no. of cells × 10^6 | cells/ml (Leishmania tarentolae; 0.5 μM, 18 hr): 9.22 no. of cells × 10^6 | cells/ml (Leishmania tarentolae; 0.5 μM, 24 hr): 14.2 no. of cells × 10^6 | cells/ml (Leishmania tarentolae; 0.5 μM, 32 hr): 29.2 no. of cells × 10^6 | cells/ml (Leishmania tarentolae; 1.0 μM, 6 hr): 2.09 no. of cells × 10^6 | cells/ml (Leishmania tarentolae; 1.0 μM, 12 hr): 2.53 no. of cells × 10^6 | cells/ml (Leishmania tarentolae; 1.0 μM, 18 hr): 2.55 no. of cells × 10^6 | cells/ml (Leishmania tarentolae; 1.0 μM, 24 hr): 2.9 no. of cells × 10^6 | cells/ml (Leishmania tarentolae; 1.0 μM, 32 hr): 3.4 no. of cells × 10^6 | cells/ml (Leishmania tarentolae; 2.5 μM, 6 hr): 1.81 no. of cells × 10^6 | cells/ml (Leishmania tarentolae; 2.5 μM, 12 hr): 3.03 no. of cells × 10^6 | cells/ml (Leishmania tarentolae; 2.5 μM, 18 hr): 3.38 no. of cells × 10^6 | cells/ml (Leishmania tarentolae; 2.5 μM, 24 hr): 2.13 no. of cells × 10^6 | cells/ml (Leishmania tarentolae; 2.5 μM, 32 hr): 2.82 no. of cells × 10^6 | activity at 0.1 µM (Leishmania tarentolae; 0.1 μM, 6 hr): 76.4% | activity at 0.1 µM (Leishmania tarentolae; 0.1 μM, 12 hr): 96.6% | activity at 0.1 µM (Leishmania tarentolae; 0.1 μM, 18 hr): 96.8% | activity at 0.1 µM (Leishmania tarentolae; 0.1 μM, 24 hr): 118% | activity at 0.1 µM (Leishmania tarentolae; 0.1 μM, 32 hr): 114% | activity at 0.25 µM (Leishmania tarentolae; 0.25 μM, 6 hr): 86.5% | activity at 0.25 µM (Leishmania tarentolae; 0.25 μM, 12 hr): 103% | activity at 0.25 µM (Leishmania tarentolae; 0.25 μM, 18 hr): 101% | activity at 0.25 µM (Leishmania tarentolae; 0.25 μM, 24 hr): 110% | activity at 0.25 µM (Leishmania tarentolae; 0.25 μM, 32 hr): 104% | activity at 0.5 µM (Leishmania tarentolae; 0.5 μM, 6 hr): 70% | activity at 0.5 µM (Leishmania tarentolae; 0.5 μM, 12 hr): 72.1% | activity at 0.5 µM (Leishmania tarentolae; 0.5 μM, 18 hr): 73.8% | activity at 0.5 µM (Leishmania tarentolae; 0.5 μM, 24 hr): 79.3% | activity at 0.5 µM (Leishmania tarentolae; 0.5 μM, 32 hr): 75.6% | activity at 1 µM (Leishmania tarentolae; 1.0 μM, 6 hr): 60.2% | activity at 1 µM (Leishmania tarentolae; 1.0 μM, 12 hr): 35.5% | activity at 1 µM (Leishmania tarentolae; 1.0 μM, 18 hr): 20.4% | activity at 1 µM (Leishmania tarentolae; 1.0 μM, 24 hr): 16.2% | activity at 1 µM (Leishmania tarentolae; 1.0 μM, 32 hr): 8.8% | activity at 2.5 µM (Leishmania tarentolae; 2.5 μM, 6 hr): 52.2% | activity at 2.5 µM (Leishmania tarentolae; 2.5 μM, 12 hr): 42.6% | activity at 2.5 µM (Leishmania tarentolae; 2.5 μM, 18 hr): 27% | activity at 2.5 µM (Leishmania tarentolae; 2.5 μM, 24 hr): 11.9% | activity at 2.5 µM (Leishmania tarentolae; 2.5 μM, 32 hr): 7.3% | IC50 [3]: 1210 nM | inhibition of bacterial growth (OD600) (Staphylococcus aureus): effective inhibitor of bacterial growth | MIC ([4]; read-out: [HHC] (MIC), patient A, VRE): 1.01 µg/mL (≈ 2.5 µM) | MIC ([4]; read-out: [HHC] (MIC), patient B, VRE): 4.06 µg/mL (≈ 9.99 µM) | MIC ([4]; read-out: [HHC] (MIC), patient C, VRE): 2.03 µg/mL (≈ 4.99 µM) | cytotoxic effect on cancer cells: effects upon DNA, RNA or protein synthesis [5]: not due to major effects upon DNA, RNA or protein synthesis | cell cycle phase distribution (MCF-7 cells; 1.5 μM HHC): increase the number of cells in G0/G1 and decrease the number of cells in S phase | cell cycle phase distribution (MCF-7 cells; 25 μM HHC): decrease in the number of cells in G0/G1 and an increase in the number of cells in S phase | effect upon G1-S phase transition (MCF-7 cells; FACS): apparent effect upon the G1-S phase transition of the cell cycle; also recorded: has an effect upon the G1-S phase transition of the cell cycle | MIC ([6]; MRSA): 2.5 µM (≈ 1.02 µg/mL) | cross resistance with other antibiotics ([6]; drug resistant MRSA): HHC is not | IC50 [7]: 2190 nM | IC50 [8]: 1970 nM | MIC ([9]; Staphylococcus aureus, read-out: [HHC] (MIC)): 1.01 µg/mL (≈ 2.5 µM) | antibiotic sensitivity ([9]; patient G, OxaRSA, threshold not given): S
